Laboratory results from US7119089B2, “Phenothiazine kinesin inhibitors” (Cytokinetics, Inc., priority 2001, dated 2006).

Legend:
[1] = test system: A549 cells; conditions: data provided by National Cancer Institute; cited from earlier work
[2] = test system: Skov-3 cells (human ovarian cancer); assay: FACS analysis of cell cycle stage by DNA content (mitotic arrest); format: cell-based; conditions: 24 hours treatment, paclitaxel at 10 nM
Protocol: FACS analysis to determine cell cycle stage by measuring DNA content was performed as follows. Skov-3 cells (human ovarian cancer) were split 1:10 for plating in 10 cm dishes and grown to subconfluence with RPMI 1640 medium containing 5% fetal bovine serum (FBS). The cells were then treated with either 10 nM paclitaxel, the test compound or 0.25% DMSO (vehicle for compounds) for 24 hours. Cells were then rinsed off the plates with PBS containing 5 mM EDTA, pelleted, washed once in PBS containing 1% FCS, and then fixed overnight in 85% ethanol at 4° C. Before analysis, the cells were pelleted, washed once, and stained in a solution of 10 μg propidium iodide and 250 μg of ribonuclease (RNAse) A per milliliter at 37° C. for half an hour. Flow cytometry analysis was performed on a Becton-Dickinson FACScan, and data from 10,000 cells per sample was analyzed with Modfit software.

| SMILES | GI50 [1] [nM] | shift in the population of cells from G0/G1 cell cycle stage (2n DNA content) to G2/M cell cycle stage (4n DNA content) [2] |
| --- | --- | --- |
| NC(=O)NO [hydroxyurea] | 500000 | – |
| COc1cccc2c1C(=O)c1c(O)c3c(c(O)c1C2=O)C[C@@](O)(C(=O)CO)C[C@@H]3O[C@H]1C[C@H](N)[C@H](O)[C@H](C)O1 [doxorubicin] | 63 | – |
| O=c1[nH]cc(F)c(=O)[nH]1 [5-fluorouracil] | 1000 | – |
| CC(=O)O[C@H]1C(=O)[C@@]2(C)[C@H]([C@H](OC(=O)c3ccccc3)[C@]3(O)C[C@H](OC(=O)[C@H](O)[C@@H](NC(=O)c4ccccc4)c4ccccc4)C(C)=C1C3(C)C)[C@]1(OC(C)=O)CO[C@@H]1C[C@@H]2O [paclitaxel] | 4 | caused a shift in the population of cells from a G0/G1 cell cycle stage (2n DNA content) to a G2/M cell cycle stage (4n DNA content) |
